This is an account of results in publication PMC12562324, “Surfactin Structural Variants Differentially Modulate Plant Immune Responses” (Biomolecules, 2025).

The subject of one assay is root tissues. The following applies: previous results; cited from earlier work. From the text: Early immune responses associated with PTI include the rapid accumulation of extracellular ROS in the apoplast, generated mainly by the plasma membrane-located NADPH oxidase RBOHD or by cell wall peroxidases. Cytoplasmic hydrogen peroxide ([ROS]intra) production also emerges as an early defense response and could originate from various organelles, as reported for ETI, or in response to abiotic stresses or other small microbial compounds [9, 36, 37].

A further assay has as its system Botrytis cinerea. As to the kind of experiment: ISR against B. cinerea in myb72-2 knockout mutant. The class given is in vivo. The following applies: 10 µM Srf or mock (0.1% EtOH) before B. cinerea infection; n = 30 from two independent experiments; Figure 6C. The protocol:
Plants were grown for 4 weeks in hydroponic conditions in Araponics systems containing a nutrient solution (0.25% (v/v) FLORAMICRO®, 0.25% (v/v) FLORABLOOM®, 0.25% (v/v) FLORAGRO®; General Hydroponics®, in volume ratio 1:1:1, as recommended by the manufacturer), with a photoperiod of 12 h and a temperature of 22 °C. Plants were then transferred into 10 mL vials filled with fresh nutrient solution and treated at the root level with CLPs or ethanol (mock treatment) to obtain final concentrations of 10 µM and 0.1%, respectively. After incubation for 24 h, plants were inoculated with Botrytis cinerea (Helotiales: Sclerotiniaceae) as the conidia solution. Spores were collected from B. cinerea grown on PDA plates for 4 weeks using a solution composed of 1.75 g/L KH2PO4; 0.74 g/L MgSO4; 4 g/L glucose, and 0.02% (v/v) Tween 20. After spore collection, the concentration was adjusted to 5 × 10^5 spores per mL, and spores were incubated at 30 °C for eight hours. Inoculation was conducted by inoculating a drop of 3 µL of conidia solution onto seven leaves per plant and fifteen plants per treatment. The number of spreading lesions was evaluated 96 h post infection.

The test system of assay [1] is Arabidopsis thaliana nia1nia2 double mutant roots. As to the kind of experiment: Srf-induced NO in nitrate reductase double mutant roots. The class given is cell-based. As to conditions: fluorescence 40 min after Srf treatment, compared with Col-0; n = 12 from three independent experiments; Figure 3D. Here is the method:
For the detection of intracellular NO, roots were processed as described above and 200 µL sterile water was replaced by 200 µL 5 μM DAF-DA in a buffered solution (10 mM Tris/HCl, pH = 7.4). Roots were incubated at room temperature for 1 h in the absence of light and then washed 3 times with Tris/HCl (10 mM, pH = 7.4). The fluorescence emitted by DAF-DA was detected by excitation at 495 nm and emission at 515 nm. Experiments where NO was measured after pretreatment with the calcium channel blocker or calcium chelator included an additional step where LaCl3 (10 mM; Merck Chemicals SA, Hoeilaart, Belgium) or EGTA (1 mM; Merck Chemicals SA, Hoeilaart, Belgium) was added three minutes before treatments. Data were processed as described above for ROS. For NO measurements in protoplasts, the suspension was incubated in the same conditions before being distributed (50 µL) in microplate wells and treated with the CLPs at a 10 µM final concentration or with 0.1% DMSO as a mock.

For the next assay, the system named is BGLU42. Nature of the assay: Coumarin pathway reporter line pBGLU42:GFP-GUS. The following applies: 10 µM Srf, 20 min post treatment, vs mock; n = 12 from three independent experiments; p < 0.05; Figure 6B. The format is cell-based, Arabidopsis thaliana. Here is the method: (§1) Seedlings of the Arabidopsis thaliana reporter lines pMYB72:GFP-GUS and pBGLU42:GFP-GUS were germinated and cultivated for seven days under the aforementioned conditions. Uniform plantlets were then transferred to 96-well optical bottom black microplates (Greiner 96 µClear, Thermo Fisher Scientific, Hampton, VA, USA). Each well contained 150 µL of the hydroponic solution. Following transfer, the microplates were sealed and incubated in a growth chamber under controlled conditions (22 °C with a 12 h photoperiod). On the fifth day of this incubation, the plates were treated by adding 150 µL of either the CLP solution or a mock control to each well. Fluorescence measurements were subsequently acquired using a Spark microplate reader and configured with an excitation wavelength of 485 nm and an emission wavelength of 530 nm. Data were collected with nine measurement points acquired per well to ensure robustness.

A further assay concerns MYB72. As to the kind of experiment: Coumarin pathway reporter line pMYB72:GFP-GUS. The format is cell-based, Arabidopsis thaliana. The following applies: 10 µM Srf, 20 min post treatment, vs mock; n = 9 from three independent experiments; p < 0.05; Figure 6A. Here is the method:
as §1

In the case of surfactin [Srf], in the assay on root tissues, the “Burst in extracellular ROS in root tissues” value is reported as “not a burst in extracellular ROS” and the “[ROS]intra production in root tissues” value is “triggers [ROS]intra production”. Further, the “ISR elicitor potential in myb72-2 knockout mutant compared to wild-type Col-0” value in the assay on Botrytis cinerea is listed as “fully conserved”. Moreover, in assay [1], the “NO production in nia1nia2 double mutant roots” value is recorded as “fully conserved induction of NO production”. Also, the “BGLU42 expression in roots of reporter line (GFP fluorescence)” value in the assay on BGLU42 is recorded as “significant upregulation”. Further, the “MYB72 expression in roots of reporter line (GFP fluorescence)” value in the assay on MYB72 is “significant upregulation”.
